Experimental data as given in patent publication US20110118239A1, “PREPARATION AND ENANTIOMERIC SEPARATION OF 7-(3-PYRIDINYL)-1,7-DIAZASPIRO[4.4]NONANE AND NOVEL SALT FORMS OF THE RACEMATE AND ENANTIOMERS” (Targacept, Inc., priority 2008, published 2011).
“And” between values parts separate entries of the source, which are not always exact repeats. Equal values may be shown once. Where a name gives a salt, the structure may show the parent alone. Read-outs that look alike come from different tables or passages of the source.

Tests used:
[1] = Dynamic vapor sorption (DVS) analysis; format: physicochemical
Procedure: In a dynamic vapor sorption (DVS) apparatus, a sample of (R)-7-(3-pyridinyl)-1,7-diazaspiro[4.4]nonane mono-p-hydroxybenzoate (˜14.1 mg) was subjected to gradually increasing, followed by then gradually decreasing, humidity over a period of about 10 h (see details below). […] Given its relatively high melting point and crystalline nature, it is therefore a particularly good candidate for drug development.

Rat α4β2 = Rat α4β2 (Rattus norvegicus, UniProt P09483+P12390); assay: Binding to rat α4β2 NNR (Ki); conditions: read-out: Rat α4β2 Ki
Procedure: (§1) Binding and function of the compounds to relevant receptor sites was determined in accordance with the techniques described in PCT WO 2008/057938. Inhibition constants (Ki values), reported in nM, were calculated from the IC50 values using the method of Cheng et al., Biochem. Pharmacol. 22: 3099 (1973). […] Thus, the compounds of the present invention are selective modulators of the α4β2 NNR subtype.

Human α4β2 = Human α4β2 (Homo sapiens, UniProt P17787+P43681); assay: Binding to human α4β2 NNR (Ki); conditions: read-out: Human α4β2 Ki
Procedure: as §1

Rat α7 = Rat α7 (Rattus norvegicus, UniProt Q05941); assay: Binding to rat α7 NNR (Ki); conditions: read-out: Rat α7 Ki
Procedure: as §1

human α4β2 NNRs = target: T1, human α4β2 NNRs (Homo sapiens, UniProt P17787+P43681); assay: Function at human α4β2 NNRs, SH-EP1/human a4b2 cells, FLIPR calcium; format: cell-based; conditions: SH-EP1/human a4b2 cells, FLIPR calcium
T1 construct: expressed in transfected cells; host or cells: SH-EP1
Procedure: as §1
After the loading period, plates were equilibrated to room temperature and the cells exposed to the test article ([…]) or nicotine or buffer alone on a FLIPR (Molecular Devices). Fluorescence (at 485 nm) was monitored throughout the experiment. The test article change in fluorescence was compared to both a positive control (10 μM nicotine) and a negative control (buffer alone) to determine the percent response relative to that of nicotine.

Human Ganglion = Human Ganglion (Homo sapiens, UniProt P30926+P32297); assay: Function at human ganglion subtype, single point 100 μM; format: cell-based
Procedure: as §1

Human Muscle = Human Muscle (Homo sapiens, UniProt P02708+P07510+Q07001); assay: Function at human muscle subtype, single point 100 μM; format: cell-based
Procedure: as §1

histamine H3 = histamine H3 (Homo sapiens, UniProt Q9Y5N1); assay: Standard receptor screen at 10 μM: histamine H3; format: binding; conditions: hydrochloride salt, read-out: inhibition at histamine H3 receptors
Procedure: (§2) Both Compound A, (R)-7-(3-pyridinyl)-1,7-diazaspiro[4.4]nonane, and Compound B, (S)-7-(3-pyridinyl)-1,7-diazaspiro[4.4]nonane, each as their hydrochloride salts, were screened, at 10 μM concentration, against a standard set of receptors. […] Thus, the two stereoisomers differentiate from one another in terms of their non-nicotinic receptor binding characteristics. This differentiation is believed to translate into a differentiation between the ability of each of (R)-7-(3-pyridinyl)-1,7-diazaspiro[4.4]nonane and (S)-7-(3-pyridinyl)-1,7-diazaspiro[4.4]nonane to treat various disease states, including, for example, the ability of Compound A to enhance desensitization of α4β2 NNRs.

muscarinic M1 = target: T2, muscarinic M1 (Homo sapiens, UniProt P11229); assay: Standard receptor screen at 10 μM: muscarinic M1; format: binding; conditions: hydrochloride salt, read-out: inhibition at muscarinic M1 receptors
T2 sequence (P11229 1-460): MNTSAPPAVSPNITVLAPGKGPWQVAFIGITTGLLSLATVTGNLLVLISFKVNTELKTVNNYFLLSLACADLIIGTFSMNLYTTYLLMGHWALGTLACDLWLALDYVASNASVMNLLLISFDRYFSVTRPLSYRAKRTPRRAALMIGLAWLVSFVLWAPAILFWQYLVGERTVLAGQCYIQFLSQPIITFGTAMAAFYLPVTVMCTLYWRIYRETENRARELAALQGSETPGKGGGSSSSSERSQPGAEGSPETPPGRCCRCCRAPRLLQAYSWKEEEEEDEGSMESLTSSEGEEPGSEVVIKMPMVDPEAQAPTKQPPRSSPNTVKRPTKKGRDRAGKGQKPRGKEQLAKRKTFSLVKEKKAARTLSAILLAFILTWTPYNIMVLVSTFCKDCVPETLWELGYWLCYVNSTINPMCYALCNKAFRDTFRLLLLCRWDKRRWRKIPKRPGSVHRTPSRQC
Procedure: as §2

[2] = tested on: non-selective central muscarinic; assay: Standard receptor screen at 10 μM: non-selective central muscarinic; format: binding; conditions: hydrochloride salt
Procedure: as §2

[3] = tested on: non-selective peripheral muscarinic; assay: Standard receptor screen at 10 μM: non-selective peripheral muscarinic; format: binding; conditions: hydrochloride salt
Procedure: as §2

nicotinic = assay: Standard receptor screen at 10 μM: nicotinic; format: binding; conditions: hydrochloride salt
Procedure: as §2

non-elective sigma = assay: Standard receptor screen at 10 μM: sigma; format: binding; conditions: hydrochloride salt
Procedure: as §2

[4] = tested on: animal models of depression and anxiety; assay: Validated animal models of depression and anxiety (summary statement); conditions: in vivo
[5] = Single rising dose (SRD) study of Compound C, plasma pharmacokinetics of racemate and enantiomers; format: in vivo; conditions: for t1/2 (mean) / Cmax / Tmax / AUC(0-inf) / half-life: plasma; for t1/2 (mean): Table 3; for Cmax / Tmax / AUC(0-inf) / half-life: human, po; for AUC(0-inf): read-out: AUCinf (mean); for half-life: read-out: Mean (SD) Terminal Elimination Half-life (converted)
Procedure: A single, rising dose (SRD) study was performed with Compound C (the racemate). Plasma samples were analyzed for the content of the two enantiomers, Compound A (substantially pure R), Compound B (substantially pure S). Three dose groups (Compound C) were analyzed, 50, 100, and 400 mg, and four subjects were randomly selected from the 6 subjects tested to receive active treatment in each cohort examined in the SRD study.

rats = assay: Seizure/convulsion induction after acute dose, rats; format: in vivo; conditions: male rats; acute oral dose of 300 mg/kg
Procedure: For example, preclinically, Compound C induced seizures following acute doses:
Likewise, Compound B induced convulsion in 1/6 male rats following an acute oral dose of 300 mg/kg.
In fact, the effect of Compound A was not statistically different from the vehicle control.

A/J mice = assay: Depression model, tail suspension (TS); format: in vivo; conditions: 20 mg/kg, 10 min test
Procedure: On the day of the test, A/J mice were brought to acclimate to the testing room for one hour. Eight animals were tested in each run. Following pretreatment with vehicle, desipramine (20 mg/kg) or Compound A, p-hydroxybenzoate (0.1, 0.3, and 1 mg/kg), a piece of transparent (Scotch) tape was attached to the tail of each mouse from about mid-tail with approximately 2 cm of tape past the end of the tail. The mice were then placed in the tail suspension chambers (white polyvinylchloride cubicles measuring 33×33×31.75 cm; Med Associates Inc., St Albans, Vt.). The mice were suspended from the hook of the TS force transducer via the tail tape. The force transducer transmitted the movements of the mouse to a recording device connected to a computer. Immobility time, struggle time, and intensity were automatically recorded for each min during the 10 min test period. Upon completion of the TS test, the mice were returned to their home cage and then to the animal colony. The TS chambers were cleaned between sessions. Data were analyzed by repeated measures and one-way analysis of variance (ANOVA) followed by Fisher PLSD post-hoc comparisons. An effect was considered significant if p<0.05.

T1 sequence (P43681 29-627 limits assumed): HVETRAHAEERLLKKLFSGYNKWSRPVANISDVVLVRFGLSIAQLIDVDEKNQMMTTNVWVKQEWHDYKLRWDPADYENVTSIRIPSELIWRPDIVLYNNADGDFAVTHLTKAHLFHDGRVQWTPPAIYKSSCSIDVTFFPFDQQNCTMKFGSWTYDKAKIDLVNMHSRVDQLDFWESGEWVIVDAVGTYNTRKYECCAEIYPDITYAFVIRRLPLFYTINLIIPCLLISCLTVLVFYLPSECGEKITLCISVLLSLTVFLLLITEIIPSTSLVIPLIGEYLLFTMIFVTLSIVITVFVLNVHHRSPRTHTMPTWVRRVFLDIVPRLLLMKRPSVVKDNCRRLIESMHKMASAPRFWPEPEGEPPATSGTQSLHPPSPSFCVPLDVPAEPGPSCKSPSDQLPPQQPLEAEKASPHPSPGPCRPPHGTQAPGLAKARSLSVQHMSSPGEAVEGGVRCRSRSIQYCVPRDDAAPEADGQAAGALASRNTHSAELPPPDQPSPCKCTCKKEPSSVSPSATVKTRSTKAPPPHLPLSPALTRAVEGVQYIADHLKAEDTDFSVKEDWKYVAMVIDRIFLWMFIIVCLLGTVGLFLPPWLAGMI
T1 sequence (P17787 26-502): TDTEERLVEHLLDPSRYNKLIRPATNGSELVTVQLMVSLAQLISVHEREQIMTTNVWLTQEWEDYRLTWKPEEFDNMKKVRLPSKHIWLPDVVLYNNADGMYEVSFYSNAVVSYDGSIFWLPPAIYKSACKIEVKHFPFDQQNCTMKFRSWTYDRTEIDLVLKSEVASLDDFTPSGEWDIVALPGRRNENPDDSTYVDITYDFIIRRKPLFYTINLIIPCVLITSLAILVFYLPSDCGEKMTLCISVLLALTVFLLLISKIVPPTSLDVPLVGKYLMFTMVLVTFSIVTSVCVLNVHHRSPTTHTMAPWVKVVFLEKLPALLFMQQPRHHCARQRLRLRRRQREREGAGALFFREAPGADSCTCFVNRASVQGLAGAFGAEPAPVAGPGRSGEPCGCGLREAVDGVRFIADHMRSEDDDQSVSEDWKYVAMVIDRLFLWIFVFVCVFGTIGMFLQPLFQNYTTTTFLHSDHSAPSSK
Human Muscle, sequence (P02708 21-457): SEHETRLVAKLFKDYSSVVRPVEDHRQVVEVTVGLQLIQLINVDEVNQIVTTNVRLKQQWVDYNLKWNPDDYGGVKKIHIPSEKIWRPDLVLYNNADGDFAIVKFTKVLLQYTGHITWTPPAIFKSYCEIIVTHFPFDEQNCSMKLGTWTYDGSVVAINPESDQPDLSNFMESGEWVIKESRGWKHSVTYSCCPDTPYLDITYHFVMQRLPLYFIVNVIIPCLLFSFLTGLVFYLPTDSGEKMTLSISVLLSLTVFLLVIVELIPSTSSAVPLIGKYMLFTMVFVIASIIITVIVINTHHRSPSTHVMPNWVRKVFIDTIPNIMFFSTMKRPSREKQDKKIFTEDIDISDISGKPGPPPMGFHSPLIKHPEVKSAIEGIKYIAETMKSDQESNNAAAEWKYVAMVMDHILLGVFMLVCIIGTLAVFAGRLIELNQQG
Human Muscle, sequence (P11230 24-501 partner): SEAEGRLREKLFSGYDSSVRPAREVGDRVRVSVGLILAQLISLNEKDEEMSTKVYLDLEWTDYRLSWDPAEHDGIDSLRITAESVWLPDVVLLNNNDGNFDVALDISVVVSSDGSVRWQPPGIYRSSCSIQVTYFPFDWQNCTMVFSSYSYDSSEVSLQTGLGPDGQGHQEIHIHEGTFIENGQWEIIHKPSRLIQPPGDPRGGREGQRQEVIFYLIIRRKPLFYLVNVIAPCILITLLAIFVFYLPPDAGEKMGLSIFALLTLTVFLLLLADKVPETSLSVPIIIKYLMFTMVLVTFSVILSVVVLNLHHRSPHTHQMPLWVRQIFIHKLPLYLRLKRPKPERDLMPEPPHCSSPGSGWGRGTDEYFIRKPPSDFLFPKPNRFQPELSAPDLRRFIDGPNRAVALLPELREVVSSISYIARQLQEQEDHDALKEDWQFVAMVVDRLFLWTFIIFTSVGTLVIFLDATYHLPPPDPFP
Human Muscle, sequence (P07510 23-517): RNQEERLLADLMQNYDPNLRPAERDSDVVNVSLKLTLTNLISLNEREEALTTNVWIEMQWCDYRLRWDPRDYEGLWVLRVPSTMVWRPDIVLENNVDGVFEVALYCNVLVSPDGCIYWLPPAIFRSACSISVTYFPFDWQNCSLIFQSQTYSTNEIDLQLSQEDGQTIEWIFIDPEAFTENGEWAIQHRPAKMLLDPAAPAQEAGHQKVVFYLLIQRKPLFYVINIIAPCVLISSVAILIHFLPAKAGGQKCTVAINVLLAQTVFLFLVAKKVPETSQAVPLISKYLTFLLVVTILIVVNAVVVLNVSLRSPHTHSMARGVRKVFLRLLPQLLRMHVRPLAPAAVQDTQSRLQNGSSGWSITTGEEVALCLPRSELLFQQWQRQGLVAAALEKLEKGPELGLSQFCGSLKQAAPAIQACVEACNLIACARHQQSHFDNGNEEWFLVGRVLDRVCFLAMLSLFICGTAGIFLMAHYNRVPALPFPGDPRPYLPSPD
Human Muscle, sequence (Q07001 22-517): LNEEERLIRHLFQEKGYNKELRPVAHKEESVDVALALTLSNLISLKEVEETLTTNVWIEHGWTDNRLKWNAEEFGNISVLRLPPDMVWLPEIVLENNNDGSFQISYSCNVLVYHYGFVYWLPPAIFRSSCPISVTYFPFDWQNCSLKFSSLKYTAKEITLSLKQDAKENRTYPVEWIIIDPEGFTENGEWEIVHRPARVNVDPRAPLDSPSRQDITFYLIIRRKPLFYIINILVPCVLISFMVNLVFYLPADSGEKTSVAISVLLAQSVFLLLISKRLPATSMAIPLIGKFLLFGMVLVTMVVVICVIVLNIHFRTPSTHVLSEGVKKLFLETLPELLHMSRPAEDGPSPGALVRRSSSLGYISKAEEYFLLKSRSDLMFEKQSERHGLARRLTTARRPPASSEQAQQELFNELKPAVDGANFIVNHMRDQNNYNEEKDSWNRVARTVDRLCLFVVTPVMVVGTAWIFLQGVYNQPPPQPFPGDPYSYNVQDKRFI
histamine H3, sequence (Q9Y5N1 whole entry): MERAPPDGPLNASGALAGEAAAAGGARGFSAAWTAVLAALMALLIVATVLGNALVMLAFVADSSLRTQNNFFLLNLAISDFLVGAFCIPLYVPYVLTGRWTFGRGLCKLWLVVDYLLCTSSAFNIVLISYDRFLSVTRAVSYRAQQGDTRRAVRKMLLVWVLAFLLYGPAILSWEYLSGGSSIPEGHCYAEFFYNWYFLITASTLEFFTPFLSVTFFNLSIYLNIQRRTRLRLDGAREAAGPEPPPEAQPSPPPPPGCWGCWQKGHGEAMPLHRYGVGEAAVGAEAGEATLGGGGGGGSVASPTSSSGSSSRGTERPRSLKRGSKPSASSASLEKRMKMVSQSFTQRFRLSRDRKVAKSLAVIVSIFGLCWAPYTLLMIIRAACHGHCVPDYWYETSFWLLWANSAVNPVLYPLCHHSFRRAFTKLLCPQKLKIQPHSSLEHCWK
Human α4β2, sequence (P43681 29-627 limits assumed): as the sequence (P43681 29-627 limits assumed) above
Human α4β2, sequence (P17787 26-502): as the sequence (P17787 26-502) above
Rat α4β2, sequence (P09483 31-630): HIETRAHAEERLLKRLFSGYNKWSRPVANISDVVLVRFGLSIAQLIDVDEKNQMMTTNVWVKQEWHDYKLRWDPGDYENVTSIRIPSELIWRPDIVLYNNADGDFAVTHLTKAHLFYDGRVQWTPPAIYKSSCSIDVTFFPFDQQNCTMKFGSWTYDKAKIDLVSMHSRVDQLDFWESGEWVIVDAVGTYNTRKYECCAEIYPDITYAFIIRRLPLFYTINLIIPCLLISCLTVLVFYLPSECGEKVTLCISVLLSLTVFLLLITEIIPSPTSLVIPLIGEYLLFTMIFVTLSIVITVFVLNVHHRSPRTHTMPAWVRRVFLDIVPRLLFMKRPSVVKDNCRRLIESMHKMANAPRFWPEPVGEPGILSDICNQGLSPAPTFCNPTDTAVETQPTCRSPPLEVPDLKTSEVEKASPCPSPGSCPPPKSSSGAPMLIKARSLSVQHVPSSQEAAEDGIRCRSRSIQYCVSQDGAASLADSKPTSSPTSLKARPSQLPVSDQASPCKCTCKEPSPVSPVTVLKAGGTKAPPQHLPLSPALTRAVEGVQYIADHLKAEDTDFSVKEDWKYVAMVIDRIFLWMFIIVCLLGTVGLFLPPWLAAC
Rat α4β2, sequence (P12390 25-500): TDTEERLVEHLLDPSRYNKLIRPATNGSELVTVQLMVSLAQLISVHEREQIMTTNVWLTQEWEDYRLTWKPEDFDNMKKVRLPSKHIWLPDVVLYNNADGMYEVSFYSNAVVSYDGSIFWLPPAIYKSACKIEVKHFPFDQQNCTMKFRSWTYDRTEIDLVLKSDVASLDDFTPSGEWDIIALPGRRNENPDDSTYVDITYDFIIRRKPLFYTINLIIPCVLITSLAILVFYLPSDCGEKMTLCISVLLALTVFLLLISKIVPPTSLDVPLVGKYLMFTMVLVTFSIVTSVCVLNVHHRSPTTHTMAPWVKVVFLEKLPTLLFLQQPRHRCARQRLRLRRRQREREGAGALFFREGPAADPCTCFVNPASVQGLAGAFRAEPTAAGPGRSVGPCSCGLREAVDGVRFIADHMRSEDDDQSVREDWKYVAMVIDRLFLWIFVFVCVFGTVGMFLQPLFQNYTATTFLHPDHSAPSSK

With `O=C(O)CCC(=O)O.c1cncc(N2CCC3(CCCN3)C2)c1` (stereo not drawn) the melting point was 131.5 to 133 °C.
`Cl.Cl.c1cncc(N2CCC3(CCCN3)C2)c1` (stereo not drawn) gave a melting point of 242 to 244 °C.
With `O.O=C(O)C(=O)O.O=C(O)C(=O)O.c1cncc(N2CCC3(CCCN3)C2)c1` (stereo not drawn) (hydrate or solvate) the melting point was 200 to 201.5 °C.
For `c1cncc(N2CCC3(CCCN3)C2)c1` (racemic) (as salt: hydrochloride) [Compound C, 7-(3-pyridinyl)-1,7-diazaspiro[4.4]nonane], the melting point was 227 to 232 °C and 227 to 233 °C.
With `O=C(O)c1ccc(O)cc1.c1cncc(N2CC[C@]3(CCCN3)C2)c1` [(R)-7-(3-pyridinyl)-1,7-diazaspiro[4.4]nonane mono-p-hydroxybenzoate] the stability to humidity ([1]; DVS) was “particularly stable to high humidity” and the “weight gain during the course of the DVS study” value ([1]; increasing then decreasing humidity over about 10 h) was “less than 0.2 wt %”.
In the case of `c1cncc(N2CC[C@@]3(CCCN3)C2)c1` [Compound B, (S)-7-(3-pyridinyl)-1,7-diazaspiro[4.4]nonane], the Ki (Rat α4β2) is reported as 82 nM, the Ki (Human α4β2) is reported as 30 nM and the Ki (Rat α7) is reported as > 10000 nM. For the same molecule, the EC50 (human α4β2 NNRs; read-out: Human α4β2 EC50) was 3900 nM, the Emax (human α4β2 NNRs; relative to 10 μM nicotine, read-out: Human α4β2 Emax (% of nic resp)) was 87% and the “Human Ganglion SP (100 μM)” value (Human Ganglion) was 18. The “Human Muscle SP (100 μM)” value (Human Muscle) was <1, the inhibition at 10 µM (histamine H3) was 58% and the inhibition at 10 µM (muscarinic M1) was 53%. For the same molecule, the “inhibition at non-selective central muscarinic receptors” value [2] was 84 % inhibition, the “inhibition at non-selective peripheral muscarinic receptors” value [3] was 84 % inhibition and the “inhibition at nicotinic receptors” value (nicotinic) was 99 % inhibition. For the same molecule, the “inhibition at non-elective sigma receptors” value (non-elective sigma) was 56 % inhibition, the “Efficacy in multiple validated animal models of depression and anxiety” value [4] was “failed to demonstrate activity” and the “t1/2 (mean)” value ([5]; 50 mg Compound C (n = 4)) was 21.0 h. For the same molecule, the “t1/2 (mean)” value ([5]; 100 mg Compound C (n = 4)) was 17.8 h, the “t1/2 (mean)” value ([5]; 400 mg Compound C (n = 4)) was 16.6 h and the Cmax ([5]; 50 mg Compound C (n = 4)) was 12.1 ng/mL. The Tmax ([5]; 50 mg Compound C (n = 4)) was 3.13 h, the AUC(0-inf) ([5]; 50 mg Compound C (n = 4)) was 237 ng·h/mL and the half-life ([5]; 50 mg Compound C (n = 4)) was 21 h. The Cmax ([5]; 100 mg Compound C (n = 4)) was 24.6 ng/mL, the Tmax ([5]; 100 mg Compound C (n = 4)) was 2.75 h and the AUC(0-inf) ([5]; 100 mg Compound C (n = 4)) was 364 ng·h/mL. For the same molecule, the half-life ([5]; 100 mg Compound C (n = 4)) was 17.8 h, the Cmax ([5]; 400 mg Compound C (n = 4)) was 158 ng/mL and the Tmax ([5]; 400 mg Compound C (n = 4)) was 2 h. The AUC(0-inf) ([5]; 400 mg Compound C (n = 4)) was 2130 ng·h/mL, the half-life ([5]; 400 mg Compound C (n = 4)) was 16.6 h and the “share of total exposure (Cmax and AUCinf) compared to the racemate, Compound C” value ([5]; oral administration of Compound C) was “approximately half”. The “induced convulsion (animals affected)” value (rats) was 1/6.
With `CNCCCN1c2ccccc2CCc2ccccc21` [desipramine, reference compound] the “struggle intensity compared to saline” value (A/J mice) was “increased struggle intensity” and the “total time immobile compared to saline” value (A/J mice) was “decreased total time immobile”.
